# Target: T1, human GPR40 (Homo sapiens, UniProt O14842)
# T1 construct: expressed in transfected cells; host or cells: CHO(dhfr-) cells: line CHO-hGPR40 No. 104 of WO2004/041266, with a stably expressed NFAT-TA-Luc reporter (CHO(dhfr-)/GPR40-NFAT-Luc)
# Assay: GPR40 antagonist activity with changes in intracellular calcium concentration as index (NFAT-luciferase reporter, CHO(dhfr-)/GPR40-NFAT-Luc cells)
# Format: cell-based
# Conditions: CHO cell line expressing human GPR40, NFAT-Luc reporter; GPR40 agonist 3-(4-((6-benzyloxy-2',6'-dimethyl-biphenyl-3-yl)methoxy)phenyl)propanoic acid 40 nM; 4 hr culture; 0.1% fatty acid-free BSA
# Excerpt: Evaluation of GPR40 antagonist activity with changes in intracellular calcium concentration as index
# An assay system of GPR40 antagonist was established as follows. In this assay system, as the GPR40 agonist, 3-(4-((6-benzyloxy-2′,6′-dimethyl-biphenyl-3-yl)methoxy)phenyl)propanoic acid (compound described in Example 340 of WO2004/041266) was used.
# First, NFAT-TA was cut out from pNFAT-TA-Luc (manufactured by BD Bioscience Clontech) with HindIII and NheI, the recovered fragment was inserted into pGL3 basic neo digested with HindIII and NheI to give plasmid:pGL3 basic neo NFAT-TA-Luc.
# This plasmid was used for “the CHO cell line (CHO-hGPR40 No. 104), which was made to express human GPR40” described in WO2004/041266, and a cell line CHO(dhfr-)/GPR40-NFAT-Luc, wherein a reporter gene was stably expressed by a method known per se, was prepared.
# This cell line was diluted with a medium (nucleic acid-free MEM (Minimum Essential Medium)—α medium added with dialyzed FBS (Fetal Bovine Serum) to a final concentration of 10%) in such a manner that 2×10^4 cells/100 μl would be contained, dispensed to a white walled 96 well plate (manufactured by Coster) by 100 μl per well, and cultured overnight in a CO2 incubator. Then the medium was removed by suction from the 96 well plate, and a 10 mM test compound-dimethyl sulfoxide (manufactured by Wako Pure Chemical Industries, Ltd.) solution diluted with a medium (nucleic acid-free MEM—α medium added with bovine serum albumin (BSA) free of fatty acid to a final concentration of 0.1%) to each concentration was added by 50 μl per well. Further, 3-(4-((6-benzyloxy-2′,6′-dimethyl-biphenyl-3-yl)methoxy)phenyl)propanoic acid diluted with a medium (nucleic acid-free MEM-α (medium added with BSA free of fatty acid to a final concentration of 0.1%) to a final concentration of 40 nM was added to the 96 well plate by 50 μl per well.
# After culture in a CO2 incubator for 4 hr, the culture medium was removed from the 96 well plate. Then, PicaGene (manufactured by TOYO INK MFG. CO., LTD.) was added to the 96 well plate, and the luciferase activity was determined using PerkinElmer ARVO (trade name, manufactured by PerkinElmer), based on which changes in the intracellular calcium concentration were evaluated. After assay of luciferase activity, nonlinear regression analysis was performed using PRISM 3 (trade name, manufactured by GraphPad) and IC50 value was calculated with changes in the intracellular calcium concentration as an index.
# In the same manner as in Experimental Example 1, the IC50 value of the compound of the present invention was calculated.
# T1 sequence (O14842 whole entry): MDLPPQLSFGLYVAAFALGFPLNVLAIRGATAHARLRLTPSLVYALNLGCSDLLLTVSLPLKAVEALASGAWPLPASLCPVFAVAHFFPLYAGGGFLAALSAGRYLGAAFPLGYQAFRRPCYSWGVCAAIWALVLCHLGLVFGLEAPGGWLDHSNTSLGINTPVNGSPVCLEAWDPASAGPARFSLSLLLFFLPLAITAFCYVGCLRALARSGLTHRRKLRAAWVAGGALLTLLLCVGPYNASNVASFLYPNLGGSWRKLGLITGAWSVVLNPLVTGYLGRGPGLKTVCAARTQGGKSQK
row,Compound,IC50
1,"CCCCOc1ccc(-n2c(NCc3ccc(C(C)(C)C)cc3)nc3ccc(Cl)cc32)cc1 [Example 75, 1-(4-Butoxyphenyl)-N-(4-tert-butylbenzyl)-6-chloro-1H-benzimidazol-2-amine]",< 0.1 µM
2,"CCOc1ccc(-n2c(NCc3ccc(Br)cc3)nc3ccc(Cl)cc32)cc1 [Example 50, N-(4-Bromobenzyl)-6-chloro-1-(4-ethoxyphenyl)-1H-benzimidazol-2-amine]",< 0.1 µM
3,"FC(F)(F)COc1ccc(-n2c(SCc3ccc(Cl)cc3)nc3cc(Cl)ccc32)cc1 [Example 67, 5-chloro-2-[(4-chlorobenzyl)thio]-1-[4-(2,2,2-trifluoroethoxy)phenyl]-1H-benzimidazole]",< 0.1 µM
4,"COc1ccc(-n2c(NCc3ccc(C(C)(C)C)cc3)nc3cc(Cl)c(Cl)cc32)cc1 [Example 92, N-(4-tert-Butylbenzyl)-5,6-dichloro-1-(4-methoxyphenyl)-1H-benzimidazol-2-amine]",< 0.1 µM
5,"CCOc1ccc(-n2c(NCc3ccc(C(C)(C)C)cc3)nc3ccc(Cl)cc32)cc1 [Example 51, N-(4-tert-Butylbenzyl)-6-chloro-1-(4-ethoxyphenyl)-1H-benzimidazol-2-amine]",< 0.1 µM
6,"CCCCOc1ccc(-n2c(NCc3ccc(C(C)(C)C)cc3)nc3cc(Cl)c(Cl)cc32)cc1 [Example 99, 1-(4-butoxyphenyl)-N-(4-tert-butylbenzyl)-5,6-dichloro-1H-benzimidazol-2-amine]",< 0.1 µM
7,"CCOc1ccc(-n2c(NC(C)c3ccc(Br)cc3)nc3ccc(Cl)cc32)cc1 (stereo not drawn) [Example 71, N-[1-(4-Bromophenyl)ethyl]-6-chloro-1-(4-ethoxyphenyl)-1H-benzimidazol-2-amine]",< 0.1 µM

# System: not given
# Assay: not given
# Conditions: not given
row,Compound,melting point
1,"Clc1ccc2nc(SCc3ccccc3)n(-c3ccccc3)c2c1 [Example 49, 2-(Benzylthio)-6-chloro-1-phenyl-1H-benzimidazole]",82 to 83 °C
2,"FC(F)(F)COc1ccc(-n2c(NCc3ccc(Cl)cc3)nc3cc(Cl)c(Cl)cc32)cc1 [Example 104, 5,6-Dichloro-N-(4-chlorobenzyl)-1-[4-(2,2,2-trifluoroethoxy)phenyl]-1H-benzimidazol-2-amine]",138 to 139 °C
3,"OCc1ccc(-n2c(SCc3ccc(Cl)cc3)nc3ccc(Cl)cc32)cc1 [Example 115, (4-{6-Chloro-2-[(4-chlorobenzyl)thio]-1H-benzimidazol-1-yl}phenyl)methanol]",121 to 122 °C
4,"CCCOc1ccc(-n2c(NCc3ccc(Br)cc3)nc3cc(Cl)ccc32)cc1 [Example 84, N-(4-Bromobenzyl)-5-chloro-1-(4-propoxyphenyl)-1H-benzimidazol-2-amine]",112 to 113 °C
5,"CON(C)C(=O)c1ccc(-n2c(SCc3ccc(Cl)cc3)nc3ccc(Cl)cc32)cc1 [Example 39, 4-{6-Chloro-2-[(4-chlorobenzyl)thio]-1H-benzimidazol-1-yl}-N-methoxy-N-methylbenzamide]",125 to 126 °C
6,"COCCOc1ccc(-n2c(SCc3ccc(Cl)cc3)nc3ccc(Cl)cc32)cc1 [Example 24, 6-Chloro-2-[(4-chlorobenzyl)thio]-1-[4-(2-methoxyethoxy)phenyl]-1H-benzimidazole]",88 to 90 °C
7,"CCOC(=O)N1CCC(n2c(SCc3ccc(Br)cc3)nc3ccc(Cl)cc32)CC1 [Example 59, Ethyl 4-{2-[(4-bromobenzyl)thio]-6-chloro-1H-benzimidazol-1-yl}piperidine-1-carboxylate]",123 to 124 °C
8,"CC(C)C(=O)c1ccc(-n2c(SCc3ccc(Cl)cc3)nc3ccc(Cl)cc32)cc1 [Example 41, 1-(4-{6-Chloro-2-[(4-chlorobenzyl)thio]-1H-benzimidazol-1-yl}phenyl)-2-methylpropan-1-one]",162 to 163 °C
9,"Oc1ccc(-n2c(SCc3ccc(Cl)cc3)nc3ccc(Cl)cc32)cc1 [Example 9, 4-{6-Chloro-2-[(4-chlorobenzyl)thio]-1H-benzimidazol-1-yl}phenol]",210 to 212 °C
10,"COc1cccc(-n2c(SCc3ccc(Cl)cc3)nc3ccc(Cl)cc32)c1 [Example 17, 6-Chloro-2-[(4-chlorobenzyl)thio]-1-(3-methoxyphenyl)-1H-benzimidazole]",100 to 101 °C
11,"CCOc1ccc(-n2c(SCc3ccc(-c4ccccc4)cc3)nc3ccc(Cl)cc32)cc1 [Example 34, 2-[(Biphenyl-4-ylmethyl)thio]-6-chloro-1-(4-ethoxyphenyl)-1H-benzimidazole]",116 to 117 °C
12,"CCOc1ccc(-n2c(SCc3ccc(C(C)(C)C)cc3)nc3cccc(Cl)c32)cc1 [Example 139, 2-[(4-tert-Butylbenzyl)thio]-7-chloro-1-(4-ethoxyphenyl)-1H-benzimidazole]",175 to 176 °C
13,"COCc1ccc(-n2c(SCc3ccc(Cl)cc3)nc3ccc(Cl)cc32)cc1 [Example 116, 6-Chloro-2-[(4-chlorobenzyl)thio]-1-[4-(methoxymethyl)phenyl]-1H-benzimidazole]",97 to 98 °C
14,"Clc1ccc(CSc2nc3ccc(Cl)cc3n2-c2ccc(C3=NCCO3)cc2)cc1 [Example 124, 6-Chloro-2-[(4-chlorobenzyl)thio]-1-[4-(4,5-dihydro-1,3-oxazol-2-yl)phenyl]-1H-benzimidazole]",143 to 144 °C
15,"CC(C)(C)OC(=O)Nc1ccc(-n2c(SCc3ccc(Cl)cc3)nc3ccc(Cl)cc32)cc1 [Example 114, tert-Butyl (4-{6-chloro-2-[(4-chlorobenzyl)thio]-1H-benzimidazol-1-yl}phenyl)carbamate]",163 to 164 °C
16,"O=C(O)c1ccc(-n2c(SCc3ccc(Cl)cc3)nc3ccc(Cl)cc32)cc1 [Example 42, 4-{6-Chloro-2-[(4-chlorobenzyl)thio]-1H-benzimidazol-1-yl}benzoic acid]",265 to 266 °C
17,Cl.Clc1ccc(CSc2nc3cc(Cl)ccc3n2-c2ccc(OCC3CC3)cc2)cc1,118 to 126 °C
18,"CCCOc1ccc(-n2c(NCc3ccc(Cl)cc3)nc3cc(Cl)ccc32)cc1 [Example 85, 5-Chloro-N-(4-chlorobenzyl)-1-(4-propoxyphenyl)-1H-benzimidazol-2-amine]",122 to 123 °C
19,"CCOc1ccc(-n2c(SCc3ccc(C#N)cc3)nc3ccc(Cl)cc32)cc1 [Example 35, 4-({[6-Chloro-1-(4-ethoxyphenyl)-1H-benzimidazol-2-yl]thio}methyl)benzonitrile]",154 to 155 °C
20,CCOc1ccc(-n2c(SCc3ccc(C(C)C)cc3)nc3ccc(Cl)cc32)cc1.Cl,96 to 100 °C
21,"COc1ccc(CSc2nc3ccc(Cl)cc3n2-c2ccc(OC)cc2)cc1 [Example 6, 6-Chloro-2-[(4-methoxybenzyl)thio]-1-(4-methoxyphenyl)-1H-benzimidazole]",119 to 120 °C
22,"CCCCOc1ccc(-n2c(NCc3ccc(Br)cc3)nc3ccc(Cl)cc32)cc1 [Example 77, N-(4-Bromobenzyl)-1-(4-butoxyphenyl)-6-chloro-1H-benzimidazol-2-amine]",123 to 124 °C
23,"CCOCc1ccc(-n2c(SCc3ccc(Cl)cc3)nc3ccc(Cl)cc32)cc1 [Example 117, 6-Chloro-2-[(4-chlorobenzyl)thio]-1-[4-(ethoxymethyl)phenyl]-1H-benzimidazole]",95 to 96 °C
24,"COCOc1ccc(-n2c(SCc3cccnc3)nc3ccc(Cl)cc32)cc1 [Example 56, 6-Chloro-1-[4-(methoxymethoxy)phenyl]-2-[(pyridin-3-ylmethyl)thio]-1H-benzimidazole]",101 to 102 °C
25,"CCOc1ccc(-n2c(SCc3ccc(Br)cc3)nc3ccc(Cl)cc32)cc1 [Example 30, 2-[(4-Bromobenzyl)thio]-6-chloro-1-(4-ethoxyphenyl)-1H-benzimidazole]",136 to 137 °C
26,"CCOC(=O)N1CCC(n2c(SCc3ccc(Cl)cc3)nc3ccc(Cl)cc32)CC1 [Example 58, Ethyl 4-{6-chloro-2-[(4-chlorobenzyl)thio]-1H-benzimidazol-1-yl}piperidine-1-carboxylate]",118 to 119 °C
